This note sets out measurements from ChEMBL document CHEMBL1142267, “Optimization of alpha-ketooxazole inhibitors of fatty acid amide hydrolase” (J Med Chem, 2008).

Assay [1] addresses T1, Liver carboxylesterase 1 (Homo sapiens, UniProt P23141).
T1 sequence (P23141 whole entry): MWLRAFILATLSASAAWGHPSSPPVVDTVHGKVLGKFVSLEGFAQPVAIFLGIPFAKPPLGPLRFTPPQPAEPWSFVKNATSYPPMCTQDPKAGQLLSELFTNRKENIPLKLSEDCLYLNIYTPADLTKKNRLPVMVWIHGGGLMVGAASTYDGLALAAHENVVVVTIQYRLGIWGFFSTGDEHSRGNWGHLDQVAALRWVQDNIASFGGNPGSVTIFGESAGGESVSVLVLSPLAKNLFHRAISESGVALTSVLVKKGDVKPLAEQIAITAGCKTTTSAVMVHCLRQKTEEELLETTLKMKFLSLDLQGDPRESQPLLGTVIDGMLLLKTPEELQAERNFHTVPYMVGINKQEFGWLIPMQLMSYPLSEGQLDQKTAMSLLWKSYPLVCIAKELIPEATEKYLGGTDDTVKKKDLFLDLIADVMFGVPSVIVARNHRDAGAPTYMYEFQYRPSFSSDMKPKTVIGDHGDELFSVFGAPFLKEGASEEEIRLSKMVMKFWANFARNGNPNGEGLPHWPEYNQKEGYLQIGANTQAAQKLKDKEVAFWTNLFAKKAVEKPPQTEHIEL

For assay [2], the target named is T2, Fatty-acid amide hydrolase 1 (Rattus norvegicus, UniProt P97612).
T2 sequence (P97612 whole entry): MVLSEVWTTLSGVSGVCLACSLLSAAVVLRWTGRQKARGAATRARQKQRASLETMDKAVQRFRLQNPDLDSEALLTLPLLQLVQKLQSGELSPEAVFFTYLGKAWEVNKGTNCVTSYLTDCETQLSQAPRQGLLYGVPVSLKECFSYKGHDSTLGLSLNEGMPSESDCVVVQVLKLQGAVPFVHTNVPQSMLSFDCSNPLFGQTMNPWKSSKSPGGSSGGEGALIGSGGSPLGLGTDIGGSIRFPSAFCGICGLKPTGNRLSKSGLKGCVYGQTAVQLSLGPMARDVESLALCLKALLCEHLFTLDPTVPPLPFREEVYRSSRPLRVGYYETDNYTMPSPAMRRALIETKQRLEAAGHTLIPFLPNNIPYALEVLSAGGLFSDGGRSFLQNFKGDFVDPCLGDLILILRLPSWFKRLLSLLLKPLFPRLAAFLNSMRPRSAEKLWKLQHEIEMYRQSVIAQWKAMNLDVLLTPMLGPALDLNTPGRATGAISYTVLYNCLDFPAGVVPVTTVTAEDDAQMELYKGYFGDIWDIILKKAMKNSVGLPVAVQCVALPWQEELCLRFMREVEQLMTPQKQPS
The assay can be described thus: Inhibition of rat recombinant FAAH expressed in Escherichia coli.

Assay [3] is described as follows: Selectivity for rat recombinant FAAH over TGH.
The nature of assay [4]: Selectivity for rat recombinant FAAH over KIAA1363.
Assay [5] deals with T3, Neutral cholesterol ester hydrolase 1 (Homo sapiens, UniProt Q6PIU2).
T3 sequence (Q6PIU2 whole entry): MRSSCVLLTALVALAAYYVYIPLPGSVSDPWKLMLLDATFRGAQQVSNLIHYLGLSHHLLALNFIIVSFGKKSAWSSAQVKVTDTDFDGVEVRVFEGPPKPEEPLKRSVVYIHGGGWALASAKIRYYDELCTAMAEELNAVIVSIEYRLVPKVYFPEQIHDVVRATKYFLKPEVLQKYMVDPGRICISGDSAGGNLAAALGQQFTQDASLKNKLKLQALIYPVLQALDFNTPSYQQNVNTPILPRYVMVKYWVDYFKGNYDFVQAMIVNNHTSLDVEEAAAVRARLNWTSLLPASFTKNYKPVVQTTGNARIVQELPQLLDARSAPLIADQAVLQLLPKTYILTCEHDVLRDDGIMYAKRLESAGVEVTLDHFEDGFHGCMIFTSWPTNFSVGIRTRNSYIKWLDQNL
The assay can be described thus: Inhibition of KIAA1363.

Structures are written as SMILES. pIC50, pKi: −log10 of the molar value.

Take `O=C(O)c1cnc(C(=O)CCc2ccc(Oc3ccccc3)cc2)o1`: the pIC50 is 5.62 in assay [1], 7.10 in assay [2] and less than 4.00 in assay [5]. Besides, the pKi in assay [2] is 7.39. Further, the Ratio IC50 is 30 in assay [3] and greater than 1250 in assay [4].
As for `CNC(=O)c1cnc(C(=O)CCc2ccc(COc3ccccc3)cc2)o1`, the pKi in assay [2] is 8.44.
Regarding `COC(=O)c1ccc(-c2cnc(CCCc3ccc(-c4ccccc4)cc3)o2)nc1`, the pKi in assay [2] was 4.30.
As to `O=C(CCCCCCc1ccccc1)c1ncc(-c2cccc(-c3nnn[nH]3)n2)o1`, the pIC50 was less than 4.00 in assay [1], 6.30 in assay [2] and less than 4.00 in assay [5]. Also, the Ratio IC50 in assay [3] and in assay [4] was greater than 200 throughout.
For the compound `COC(=O)c1cccc(-c2cnc(C(=O)CCc3ccc(OC4CCN(C(=O)OC(C)(C)C)CC4)cc3)o2)n1`, in assay [2], the pKi is 7.49.
With `NC(=O)c1cnc(C(=O)CCc2ccc(COc3ccccc3)cc2)o1`, the pKi in assay [2] was 8.35.
Turning to `O=C(O)c1ccc(-c2cnc(CCCc3ccc(-c4ccccc4)cc3)o2)nc1`, the pKi in assay [2] is 4.70.
As for `O=C(CCc1ccc(-c2ccccc2)cc1)c1ncc(C(F)(F)F)o1`, the pKi in assay [2] is 9.15.
Same read-out and setting: next, `COC(=O)c1cccc(-c2cnc(CCCc3ccc(-c4ccccc4)cc3)o2)n1`: 5.15; `O=C(CCc1ccc(-c2ccccc2)cc1)c1ncc(C(=O)C(F)(F)F)o1`: 8.10.
`O=C(O)c1cnc(C(=O)CCCCCCc2ccccc2)o1`: the results for the negative-log IC50 (pIC50) in assay [1] and in assay [2] were 5.70 and 8.70, respectively. Moreover, the figures for the Ratio IC50 in assay [3] and in assay [4] were 1000 and greater than 50000, respectively.
As to `COC(=O)c1cnc(C(=O)CCc2ccc(-c3ccccc3)cc2)o1`, in assay [2], the pKi is 8.82.
Regarding `O=C(O)c1ccc(-c2cnc(C(O)CCc3ccc(-c4ccccc4)cc3)o2)nc1` (centres undefined), in assay [2], the pKi was 5.00.
As for `NC(=O)c1ccc(-c2cnc(CCCc3ccc(-c4ccccc4)cc3)o2)nc1`, the pKi in assay [2] was 4.52.
Consider `O=C(CCc1ccc(COc2ccccc2)cc1)c1ncc(-c2cccc(-c3nnn[nH]3)n2)o1`, for which the pIC50 was 4.05 in assay [1], 6.74 in assay [2] and less than 4.00 in assay [5]. The figures for the Ratio IC50 in assay [3] and in assay [4] were 500 and greater than 550, respectively.
On to `O=C(CCCCCCc1ccccc1)c1ncco1`, for which, in assay [2], the pIC50 is 5.60.
For the compound `COC(=O)c1ccc(-c2cnc(C(O)CCc3ccc(-c4ccccc4)cc3)o2)nc1` (centres undefined), the pKi in assay [2] was 5.96.
`O=C(CCc1ccc(COc2ccccc2)cc1)c1ncc(-c2ccccn2)o1`: the results for the pIC50 in assay [1], in assay [2] and in assay [5] were 5.70, 8.70 and less than 4.00, respectively. Besides, the Ratio IC50 was 1000 in assay [3] and greater than 50000 in assay [4].
Consider `NC(=O)c1cccc(-c2cnc(C(O)CCc3ccc(-c4ccccc4)cc3)o2)n1` (centres undefined), for which the pKi in assay [2] was 4.70.
On to `O=C(O)c1cccc(-c2cnc(C(=O)CCc3ccc(OC4CCNCC4)cc3)o2)n1`, for which, in assay [2], the pKi was 4.96.
Regarding `O=C(CCc1ccc(-c2ccccc2)cc1)c1ncc(-c2cccc(-c3nnn[nH]3)n2)o1`, the pIC50 in assay [1] is 5.15; in assay [2] it was 7.00; in assay [5] it was less than 4.00. For the same compound, in assay [2], the pKi is 7.60. Also, the results for the Ratio IC50 in assay [3] and in assay [4] were 70 and greater than 1000, respectively.
For `O=C(CCc1ccc(Oc2ccccc2)cc1)c1ncc(I)o1`, the pKi in assay [2] is 8.00.
`NC(=O)c1cnc(C(=O)CCc2ccc(-c3ccccc3)cc2)o1`: in assay [2], the pKi is 8.46.
For `CS(=O)(=O)c1cnc(C(=O)CCc2ccc(-c3ccccc3)cc2)o1`, the pKi in assay [2] was 8.92.
For the compound `O=C(CCc1ccc(-c2ccc(CN3CCCCC3)cc2)cc1)c1ncco1`, the pKi in assay [2] was 7.60.
With `COC(=O)c1cc(-c2cnc(C(=O)CCc3ccc(-c4ccccc4)cc3)o2)ccn1`, in assay [2], the pKi is 8.82.
For the compound `N#Cc1cnc(C(=O)CCc2ccc(-c3ccccc3)cc2)o1`, the pIC50 was 7.59 in assay [1], 9.00 in assay [2] and 4.19 in assay [5]. The Ratio IC50 in assay [3] was determined as 26; in assay [4], 64000. For the same compound, in assay [4], the Selectivity ratio is greater than 1000.
For the compound `NC(=O)c1cccc(-c2cnc(CCCc3ccc(-c4ccccc4)cc3)o2)n1`, the pKi in assay [2] is 5.40.
Take `O=C(O)c1cnc(C(=O)CCc2ccc(COc3ccccc3)cc2)o1`: the pIC50 in assay [1] is 4.43; in assay [2], 7.30; in assay [5], less than 4.00. Besides, the pKi in assay [2] was 7.66. Also, the Ratio IC50 in assay [3] was 740; in assay [4], greater than 2000.
Turning to `CN(C)C(=O)c1cnc(C(=O)CCc2ccc(COc3ccccc3)cc2)o1`, the pKi in assay [2] was 8.17.
Turning to `O=C(O)c1cnc(C(=O)CCc2ccc(-c3ccccc3)cc2)o1`, the values for the pIC50 in assay [1], in assay [2] and in assay [5] were 4.77, 7.70 and less than 4.00, respectively. Further, the pKi in assay [2] is 8.00. For the same compound, the values for the Ratio IC50 in assay [3] and in assay [4] were 850 and greater than 5000, respectively.
With `COC(=O)c1cnc(C(=O)CCc2ccc(Oc3ccccc3)cc2)o1`, the pKi in assay [2] is 8.77.
On to `CN(C)C(=O)c1cnc(C(=O)CCc2ccc(-c3ccccc3)cc2)o1`, for which the pKi in assay [2] is 8.52.
`O=C(CCc1ccc(-c2ccccc2)cc1)c1ncc(-c2ccccn2)o1`: the results for the pIC50 in assay [1] and in assay [5] were 5.92 and less than 4.00, respectively.
On to `O=C(CCc1ccc(Oc2ccccc2)cc1)c1ncc(-c2ccccn2)o1`, for which the results for the pIC50 in assay [1], in assay [2] and in assay [5] were 6.70, 8.70 and less than 4.00, respectively.
With `CN1CCN(Cc2ccc(-c3ccc(CCC(=O)c4ncc(-c5cccc(C(=O)O)n5)o4)cc3)cc2)CC1`, the pKi in assay [2] is 5.92.
In the case of `O=C(O)c1cccc(-c2cnc(C(=O)CCc3ccc(-c4ccc(CN5CCCC5)cc4)cc3)o2)n1`, the pKi in assay [2] was 6.89.
Consider `CSc1cnc(C(=O)CCc2ccc(-c3ccccc3)cc2)o1`, for which, in assay [2], the pKi was 8.52.
On to `COC(=O)c1cccc(-c2cnc(C(O)CCc3ccc(-c4ccccc4)cc3)o2)n1` (centres undefined), for which the pKi in assay [2] is 5.05.
On the same count and under the same terms, the value for `NC(=O)c1ccc(-c2cnc(C(O)CCc3ccc(-c4ccccc4)cc3)o2)nc1` (centres undefined) was less than 6.00; that for `NC(=O)c1cnc(C(=O)CCc2ccc(Oc3ccccc3)cc2)o1` was 8.18.
Same read-out and setting: the value for `COC(=O)c1cccc(-c2cnc(C(=O)CCc3ccc(OC4CCNCC4)cc3)o2)n1` was 5.35; that for `NC(=O)c1ccc(-c2cnc(C(=O)CCc3ccc(-c4ccccc4)cc3)o2)nc1` was 8.89.
Turning to `O=C(O)c1cccc(-c2cnc(CCCc3ccc(-c4ccccc4)cc3)o2)n1`, the pKi in assay [2] was 5.00.
As to `O=C(CCc1ccc(-c2ccccc2)cc1)c1ncc(I)o1`, the pKi in assay [2] is 8.40.
As for `N#Cc1cccc(-c2cnc(C(=O)CCc3ccc(COc4ccccc4)cc3)o2)n1`, the pKi in assay [2] was 9.25.
For the compound `COC(=O)c1cnc(C(=O)CCc2ccc(COc3ccccc3)cc2)o1`, in assay [2], the pKi is 8.80.
As for `O=C(O)c1cccc(-c2cnc(C(=O)CCCCCCc3ccccc3)o2)n1`, the pIC50 in assay [2] was 7.00. Moreover, the Ratio IC50 in assay [3] and in assay [4] was greater than 1000 in each case.
`CNC(=O)c1cnc(C(=O)CCc2ccc(Oc3ccccc3)cc2)o1`: the pKi in assay [2] is 7.96.
Same read-out and setting: the value for `N#Cc1cccc(-c2cnc(C(=O)CCc3ccc(-c4ccccc4)cc3)o2)n1` was 8.54.
`CC(C)(C)OC(=O)N1CCC(Oc2ccc(CCC(=O)c3ncc(-c4cccc(C(=O)O)n4)o3)cc2)CC1`: in assay [2], the pKi is 6.92.
For the compound `O=C(O)c1cccc(-c2cnc(C(O)CCc3ccc(-c4ccccc4)cc3)o2)n1` (centres undefined), in assay [2], the pKi was 5.96.
For the compound `CN(C)C(=O)c1cnc(C(=O)CCc2ccc(Oc3ccccc3)cc2)o1`, in assay [2], the pKi is 8.27.
As for `O=C(CCc1ccc(COc2ccccc2)cc1)c1ncc(I)o1`, in assay [2], the pKi is 8.40.
